Data on 1 compound can be found in patent publication EP2886105B1, “Controlled-release formulations” (CAMURUS AB, priority 2007, dated 2018).

Structures are written as SMILES. Counter-ions that a name gives are not always drawn.

Data set [1] is described as follows: In vivo release of SOM after subcutaneous injection, plasma SOM by ELISA. More on the design: species or system rat. Here is the method:
A liquid lipid formulation comprising SPC/GDO/EtOH = 44/44/12 wt% was prepared as described in Example 1.
A freeze-dried powder of SOM (MW ca 1.6 kDa) and TRE was prepared in the same way as in Example 4 giving a SOM (free base)-to-TRE weight ratio of 1:2.5.
The freeze-dried powder was added to the lipid formulation such that the final SOM (free base) concentration in the formulation was 2 wt% (ca 20 mg/mL) followed by end-over-end rotation for 1 day. […] The final filter-sterilized formulation was then injected subcutaneously to rats (male Sprague-Dawley).
In the in vivo rat model the release of SOM was followed during 14 days. The formulations were administered subcutaneously between the scapulae by using a syringe (23G, 0.6mm × 25mm). The SOM concentration in the rat plasma was quantified using a commercial ELISA kit (S-1164, Bachem/Peninsula Laboratories, LOQ = 0.03 ng/mL). The dose was 20 mg/kg and dose volume was 1 mL/kg corresponding to a drug load of 2.0wt% SOM (free base).

The conditions of data set [2]: natural Somatostatin; cited from earlier work.
For data set [3] the following is noted: cited from earlier work.

For `C[C@H](N)C(=O)NCC(=O)N[C@H]1CSSC[C@@H](C(=O)O)NC(=O)[C@H](CO)NC(=O)[C@H]([C@@H](C)O)NC(=O)[C@H](Cc2ccccc2)NC(=O)[C@H]([C@@H](C)O)NC(=O)[C@H](CCCCN)NC(=O)[C@H](Cc2c[nH]c3ccccc23)NC(=O)[C@H](Cc2ccccc2)NC(=O)[C@H](Cc2ccccc2)NC(=O)[C@H](CC(N)=O)NC(=O)[C@H](CCCCN)NC1=O` [SOM, Somatostatin, acetate salt], the Release profile entry in data set [1] (rat plasma, subcutaneous, 20 mg/kg SOM lipid formulation, low initial release) is given as “without a burst effect”. For the same compound, in data set [1] (rat plasma, versus placebo formulation, depending on time point, over at least 14 days, s.c. 20 mg/kg), the “SOM levels higher than the endogenous SOM levels (factor)” value is 2-9. Besides, the Duration of release result in data set [1] (rat, subcutaneous, 20 mg/kg SOM lipid formulation) is listed as “at least 14 days”. Also, in data set [2], the biological half-life is on record as 1-3 minutes. Besides, the “half-life of SOM in rat plasma” value in data set [3] is reported as “a few minutes”.
